Results taken from patent publication US7919268B2, “Reducing sample turbidity in measurement of enzymatic activity in cell lysates” (Roche Diagnostics Operations, Inc., priority 2005, dated 2011).
Counter-ions that a name gives are not always drawn. Like-named read-outs stand apart in the source and are kept apart here.

How the values were obtained:
[1] = tested on: human suspension cell line U 937; experiment: Absorption of cells at 690 nm after treatment with different reagents; type: cell-based; conditions: reagent final concentration 1% (v/v)
Method: The human suspension cell line U 937 was cultured in RPMI 1640 medium (Sigma Company) containing 10% foetal calf serum and 2 mM glutamine. The cells were then washed in fresh RPMI medium and adjusted to 25,000, 50,000 and 100,000 cells/100 μl. 100 μl thereof was in each case transferred to a 96-well standard microtitre plate. 50 μl RPMI medium containing the appropriate reagents was added by pipette to each of the cell solutions.
The absorption of each well was measured at a wavelength of 690 nm after 5 min and 75 min incubation.

LDH [2] = conditions: 0.2 M HCl, Triton X100 1% (v/v)
Method: In another experiment HCl and NaOH were used as a stop reagent.
For this purpose cell-free lysates each of 1000 cells were used in an LDH test with the components from the Cytotoxicity Detection Kit (LDH) containing the modified dye solution. After a reaction time of 30 min different stop reagents were added to these mixtures and the absorption was monitored at 492 nm (the absorption maximum of reduced INT).

LDH [3] = type: biochemical, human; conditions: SDS 3% (v/v), sodium oxamate 15 mM, Triton X100 1% (v/v); for Absorption 0 min after adding stop reagent / Absorption 30 min after adding stop reagent / Absorption 120 min after adding stop reagent: 492 nm, lysate of 5000 cells, reaction time 5 min
[4] = 492 nm, lysate of 1000 cells, reaction time 30 min

| Compound | Absorption after 5 min ([1]; 25 000 U 937 cells) | Absorption after 75 min ([1]; 25 000 U 937 cells) | Absorption after 5 min ([1]; 50 000 U 937 cells) | Absorption after 75 min ([1]; 50 000 U 937 cells) | Absorption after 5 min ([1]; 100 000 U 937 cells) | Absorption after 75 min ([1]; 100 000 U 937 cells) | Termination of the LDH reaction (in words) (LDH [2]) | Absorption 0 min after adding stop reagent (LDH [2]; [4]) | Absorption 30 min after adding stop reagent (LDH [2]; [4]) | Absorption 120 min after adding stop reagent (LDH [2]; [4]) | Absorption 0 min after adding stop reagent (LDH [3]) | Absorption 30 min after adding stop reagent (LDH [3]) | Absorption 120 min after adding stop reagent (LDH [3]) | Termination of the LDH reaction (in words) (LDH [3]) |
| --- | --- | --- | --- | --- | --- | --- | --- | --- | --- | --- | --- | --- | --- | --- |
| CCCCCCCCCCCCCCCC[N+](C)(C)C.[Br-] [CTAB, cetyltrimethylammonium bromide] | 0.006 | 0.003 | 0.031 | 0.014 | 0.025 | 0.018 |  |  |  |  |  |  |  |  |
| CCCCCCCCCCCC[N+](C)(C)C.[Br-] [DTAB, dodecyltrimethylammonium bromide] | 0.005 | 0.006 | 0.012 | 0.011 | 0.024 | 0.021 |  |  |  |  |  |  |  |  |
| Cl [HCl] |  |  |  |  |  |  | suitable stop reagent | 0.275 | 0.271 | 0.261 |  |  |  |  |
| CCCCCCCCCCCCN(C)CC(=O)O [N-laurylsarcosine] | 0.001 | 0.002 | 0.003 | 0.004 | 0.012 | 0.013 |  |  |  |  |  |  |  |  |
| CCCCCCCCCCCCOS(=O)(=O)[O-].[Na+] [SDS, sodium dodecyl sulphate] | 0.002 | 0.003 | 0.006 | 0.006 | 0.010 | 0.010 |  |  |  |  | 0.113 | 0.113 | 0.105 | stop the LDH reaction |
| NC(=O)C(=O)[O-].[Na+] [sodium oxamate] |  |  |  |  |  |  |  |  |  |  | 0.113 | 0.127 | 0.179 | stop the LDH reaction |
| octylphenoxypolyethoxyethanol [Triton X100] | 0.001 | 0.001 | 0.004 | 0.004 | 0.008 | 0.008 |  |  |  |  |  |  |  |  |
